Here are results for one compound from patent US20250214951A1, “3-PHENYLISOXAZOLE DERIVATIVE, AND PHARMACEUTICAL COMPOSITION FOR PREVENTING OR TREATING EYE DISEASE, CONTAINING SAME AS ACTIVE INGREDIENT” (VASTHERA CO., LTD., priority 2022, published 2025).

Common to all, as to format: cell-based, human
Assay [1] deals with A2E accumulated in ARPE-19 cells. In words: Removal of intracellular A2E measured by HPLC/LC-MS. Conditions: ARPE-19 loaded with 50 μM A2E 48 h; 10, 25, 50 μM, 24 h; FIG. 2. The text has this:
In Table 1 and FIG. 1, in order to measure the reduction of intracellular A2E by compounds, A2E-fluorescent substance (A2E-BDP) that is easy to observe fluorescence was used. In previous research reports, A2E-BDP is known to have the same intracellular dynamics and characteristics as A2E, but since A2E is a substance that actually exists in a living body, the quantitative change in intracellular A2E was directly measured using the HPLC method as follows.
ARPE-19 cell lines were dispensed into 6-well plates at a concentration of 4×10^3 cells/well and cultured for 24 hours. ARPE-19 cell lines were treated with A2E at a concentration of 50 μM for 48 hours to accumulate A2E intracellularly. To evaluate the A2E removal ability, ARPE-19 cells containing A2E were treated with compound 17 of the present invention (10, 25, 50 μM) for 24 hours. Thereafter, ARPE-19 cells were washed with phosphate-buffered saline (PBS), and cell lysis buffer containing a protease inhibitor was added to prepare a cell lysate. Chloroform and methanol (2:1, vol/vol) were added to the sample obtained above, shaken to extract A2E, and then centrifuged at 10,000 g for 10 minutes. […] LC-MS (Shimadzu LC-MS 2010EV) analysis was performed using a C18 column ([…]) with acetonitrile and 0.1% formic acid (gradient, 0-100%, 0-10 min; flow rate 1.0 ml/min; monitored at 503 nm). […]

For the next assay, the system named is NF-κB (p65). The assay is described as follows: Inhibition of blue light-induced NF-κB activation (p65 Western immunoblotting). Conditions: A2E and blue light; 10 and 25 μM; FIG. 4. The text has this:
When cells are stimulated by external pathogenic molecules (PAMPs), NF-κB dimers (p50-p65 dimers) are separated from IκB and activated. The separated NF-κB dimers pass through the nuclear membrane and enter the nucleus, where they bind to DNA and activate gene transcription, indicating the activation of NF-κB. Therefore, the inhibitory effect of the compound of the present invention on NF-κB activation can be evaluated by measuring changes in the cytoplasmic or nuclear levels of p65. The experiment was conducted as follows.
ARPE-19 cells were seeded in 6-well plates at a concentration of 2×10^4 cells/well and cultured for 24 hours. In order to induce A2E accumulation in the ARPE-19 cell line, cells were treated with A2E three times at a concentration of 25 μM at 48-hour intervals. 24 hours after the final A2E treatment, cells were treated with compound 17 of the present invention twice at concentrations of 10 and 25 μM at 24-hour intervals, respectively. […] The level of p65 was measured by Western immunoblotting using anti-p65 antibody (Cell Signaling Technology, MA, USA). The cytoplasmic and nuclear fractions were measured by Western immunoblotting in the same manner as above using antibodies against α-tubulin (Cell Signaling Technology) and histone H3 (Abcam, Cambridge, UK) as internal controls, respectively.

In another assay the test system is LC3-II (autophagy flux). The assay is described as follows: Autophagy flux in ARPE-19 with or without bafilomycin A1. To be noted: 10, 25, 50 μM, 12 h, bafilomycin A1 2 nM 4 h, FIG. 7. The procedure:
Autophagy flux was measured by comparing the degree of change in LC3-II protein formation by treatment with example 17 compound of the present invention in the presence and absence of bafilomycin A1 (Abcam, Cambridge, United Kingdom) by Western blotting (Seranova E. et al. Autophagy: Methods and Protocols, Methods in Molecular Biology, vol. 1880, pp 389-428, 2019, https://doi.org/10.1007/978-1-4939-8873-0_26).
The autophagy flux measurement in this experiment used saturating concentrations of bafilomycin A1, known as an autophagy inhibitor. […] Therefore, the effect of the example compound of the present invention on autophagy flux can be determined by examining the level of LC3-II following treatment with the example compound of the present invention in the presence or absence of saturating concentrations of bafilomycin A1.
Specifically, in this experiment, ARPE-19 cell lines were seeded in 6-well plates at a concentration of 1×10^5 cells/well and cultured for 24 hours. […] The LC3-II level was measured by the Western immunoblotting method using a specific anti-LC3-II antibody (Cell Signaling Technology, MA, USA). Meanwhile, after treating with example 17 compound in the same manner as above under the condition of treating with bafilomycin A1 at a concentration of 2 nM for 4 hours, the amount of LC3-II was measured by the Western immunoblotting method. […]

For the compound `C=CCOCc1cc(-c2cc(CC=C)ccc2OC)no1` [Example 17, 3-(5-allyl-2-methoxyphenyl)-5-((allyloxy)methyl)isoxazole], the “amount of accumulated A2E (HPLC)” value in assay [1] is “significantly reduced in a concentration-dependent manner”. In addition, the “activation of NF-κB (movement of p65 into the nucleus)” value in the assay with NF-κB (p65) was “activation of NF-κB was inhibited”. The “autophagy flux (difference in LC3-II with/without bafilomycin A1)” value with LC3-II (autophagy flux) is “significantly increases autophagy flux”.
